Laboratory results: PMC7708037, “Targeting OGG1 arrests cancer cell proliferation by inducing replication stress” (Nucleic Acids Research, 2020)

Assays:
[1] = target: OGG1 enzyme (Homo sapiens, UniProt O15527); experiment: OGG1 activity in vitro (biochemical assay); details: for IC50: 1 nM OGG1, 10 nM 8oxoA:C substrate, 2 nM APE1, read-out: IC50 of OGG1 inhibition
Procedure: OGG1 activity was assessed in vitro as previously described ([39]).
Figure 7. […] (A) Lack of TH5487 efficacy in vivo. A3 cells were injected subcutaneously in mice, allowed to graft for three days and then administered […] TH5487 orally, once a day on weekdays. Twelve days into the treatment, the dose was increased to 40 mg/kg. Data are average ± SD (n = 9 per treatment group). (B) TH5487 target engagement in A3 xenograft. Tumors were excised following termination, and TH5487 target engagement was analyzed by cellular thermal shift assay, using an antibody specific for the human OGG1 protein. Data are average ± SD (n = 4 different tumors per group). (C) Effect of bovine serum albumin on OGG1 inhibition by TH5487. A dilution series of TH5487 was incubated with OGG1 enzyme and a DNA reporter oligonucleotide containing an OGG1-substrate, in the presence or absence of 1% (w/v) bovine serum albumin. Data are average ± SD of four technical replicates from two independent experiments.
Supplementary Fig. S4: OGG1 inhibitors selectively inhibt cancer cell line proliferation A. TH5796 and TH6943 inhibit OGG1 activity in vitro. OGG1 enzyme was treated with the indicated concentration inhibitor in technical duplicates. The line connects the average values. TH5796 inhibits OGG1 with an […]
with the indicated concentrations of TH5796 or TH6943 and 10 nM 8oxoA:C substrate in the presence of 2 nM APE1 as described. B. Chemical structure of TH5487 and the analogues described in this work.
C. Correlation between TH5487 EC 50 values and TH5796 or TH6943. Cell lines were treated for five […]
experiments. The lines indicate the best fit linear regression line, and R 2 the corresponding coefficient of determination. D. to F. Cancer cell selectivity for TH5487 (D), TH5796 (E) and TH6943 (F). Cell lines were treated as in Fig. 3E, and each point represents the EC50 value determined from 1 –5 independent […]
(1 picture or pasted object on this page, not shown here)

[2] = test system: THP1; experiment: Resazurin viability, 5 days; assay type: cell-based, human; details: THP1, C, Acute monocytic leukemia
Procedure: (§1) Cells were seeded in 96- or 384-well plates and incubated for 3 days for combination experiments or 5 days for single-drug exposure experiments. Resazurin (R7017, SigmaAldrich) was added to a final concentration of 0.01 mg/ml resazurin and fluorescence was measured at ex530/em590 after incubation for 2, 4 or 6 h. Curves were fitted using XLfit software (IDBS) or Prism 8.0 (Graphpad Software), and EC50 values were determined.
(§2) Supplementary Table S1: Effect of OGG1 inhibitors on cancer and non-transformed cell lines.
(§3) Cell lines were incubated with a dilution series of the indicated compounds for 5 days, and viability
(§4) assessed with resazurin. EC50-values were calculated based on the resulting dose -response curves.
(§5) The number of independent experiments is indicated for each value.
(§6) C=cancer;N=non- Disease EC50 n= EC50 n= EC50 n=
(§7) transformed (µM) (µM) (µM) […]
THP1 C Acute monocytic leukemia 17.8 4 19.2 2

[3] = test system: MCF7; experiment: Resazurin viability, 5 days; assay type: cell-based, human; details: MCF7, C, Breast adenocarcinoma
Procedure: as §1, §2, §3, §4, §5, §6

[4] = test system: K562; experiment: Resazurin viability, 5 days; assay type: cell-based, human; details: K562, C, Chronic myelogenous leukemia
Procedure: as §1, §2, §3, §4, §5, §6

[5] = test system: SW1271; experiment: Resazurin viability, 5 days; assay type: cell-based, human; details: SW1271, C, Small cell lung carcinoma
Procedure: as §1, §2, §3, §4, §5, §6

[6] = test system: Hec59; experiment: Resazurin viability, 5 days; assay type: cell-based, human; details: Hec59, C, Endometrioid adenocarcinoma
Procedure: as §1, §2, §3, §4, §5, §6

[7] = test system: Hec59+Chr2; experiment: Resazurin viability, 5 days; assay type: cell-based, human; details: Hec59+Chr2, C, Endometrioid adenocarcinoma with WT Chr2
Procedure: as §1, §2, §3, §4, §5, §6, §7

[8] = test system: NB-4; experiment: Resazurin viability, 5 days; assay type: cell-based, human; details: NB-4, C, Acute promyelocytic leukemia
Procedure: as §1, §2, §3, §4, §5, §6, §7

[9] = test system: Ogg1−/− mouse embryonic fibroblasts; experiment: Colony formation assay; assay type: cell-based; details: up to 20 μM
Procedure: The indicated concentrations TH5487 were spotted in 6-well plates using a Tecan D300e digital dispenser. 200–500 cells/well H460, ACHN, Ogg1^−/− mouse embryonic fibroblasts and MRC5 cells were then seeded at 200–500 cells/well and incubated for 7–11 days. Colonies exceeding 50 cells were fixed, stained and enumerated as above.
Figure 3. The OGG1 inhibitor TH5487 is selectively toxic to oncogene-expressing cells and cancer cell lines. (A) Close-up view of ligand TH5487 (green) binding to human OGG1. Important residues in the binding site are marked, hydrogen bond interactions are shown in black dashed line, water (red sphere)-mediated interactions in grey dashed line. (B) Comparison between the binding of ligand TH5487 (green) to human OGG1 (gray) with the structure of TH5675 (pink) bound to mouse OGG1 (yellow, PDB 6G3Y). (C) Viability of BJ-Tert and BJ-Ras cells exposed to the indicated concentrations TH5487 for five days. Data are average ±SD of four technical replicates from two independent experiments. (D) Clonogenic survival of cell lines exposed to TH5487. The cancer cell lines ACHN and H460, and the non-transformed cell lines MRC5 and Ogg1^−/− mouse embryonic fibroblasts (MEF) were incubated for 6–11 days in the presence of the indicated concentrations TH5487, followed by colony enumeration. […]

Chain of OGG1 enzyme (O15527 whole entry): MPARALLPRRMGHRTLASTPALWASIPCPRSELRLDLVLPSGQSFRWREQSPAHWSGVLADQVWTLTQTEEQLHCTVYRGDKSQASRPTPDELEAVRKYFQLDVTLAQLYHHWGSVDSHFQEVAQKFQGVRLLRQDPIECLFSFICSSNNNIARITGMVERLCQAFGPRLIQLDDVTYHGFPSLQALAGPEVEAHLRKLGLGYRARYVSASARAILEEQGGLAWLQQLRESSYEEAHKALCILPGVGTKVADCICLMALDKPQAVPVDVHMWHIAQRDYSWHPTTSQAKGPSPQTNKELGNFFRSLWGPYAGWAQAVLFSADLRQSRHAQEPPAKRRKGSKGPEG

## O=C(Nc1ccc(I)cc1)N1CCC(n2c(=O)[nH]c3c(Br)cccc32)CC1 [TH5487]
[1]; presence of 1% (w/v) bovine serum albumin
  Effect of bovine serum albumin on OGG1 inhibition: marked loss of inhibition of OGG1 enzyme activity
[2]
  EC50: 17.8 µM
[3]
  EC50: 23.3 µM
[4]
  EC50: 16.7 µM
[5]
  EC50: 22 µM
[6]
  EC50: 17 µM
[7]
  EC50: 15.7 µM
[8]
  EC50: 4.8 µM
[9]
  Clonogenic potential: unaffected

## O=C(Nc1ccc(Cl)c(Cl)c1)N1CCC(n2c(=O)[nH]c3c(-c4ccc(CO)nc4)cccc32)CC1 [TH5796, N-(3,4-Dichlorophenyl)-4-[4-[6-(hydroxymethyl)-3-pyridyl]-2-oxo-3H-benzimidazol-1-yl]piperidine-1-carbox amide]
[1]
  IC50: 0.766 µM
[2]; Homo sapiens, THP-1, 120 h
  EC50: 19.2 µM
[3]; Homo sapiens, 120 h
  EC50: 26.5 µM
[4]; Homo sapiens, 120 h
  EC50: 21 µM
[5]; Homo sapiens, 120 h
  EC50: 24.6 µM
[6]; Homo sapiens, 120 h
  EC50: 11.5 µM
[7]; Homo sapiens, 120 h
  EC50: 17.3 µM
[8]; Homo sapiens, 120 h
  EC50: 11.5 µM

## Cc1cc(NC(=O)N2CCC(n3c(=O)[nH]c4c(Br)cccc43)CC2)ccc1I [TH6943, 4-(4-Bromo-2-oxo-3H-benzimidazol-1-yl)-N-(4-iodo-3-methyl-phenyl)piperidine-1-carboxamide]
[1]
  IC50: 0.17 µM
